What all share (type): functional, Homo sapiens
Settings in all cases: for viability at 10 µM / viability at 1 µM: Homo sapiens, read-out: Cell Viability; for viability at 1 µM: Concentration 1 uM

Test [1] has as its system Colon cancer organoid. Nature of the test: Targeting of F14 CAF-induced therapy resistance in O14 CRC organoid-stroma co-culture. Cell viability is reported without Gefitinib.
The test system of test [2] is Colon cancer organoid. Description: Targeting of F14 CAF-induced therapy resistance in O14 CRC organoid-stroma co-culture. Cell viability is reported with Gefitinib.
Test [3] concerns Colon cancer organoid. Description: Targeting of F14 CAF-induced therapy resistance in O23 CRC organoid-stroma co-culture. Cell viability is reported without Gefitinib.
For test [4], the system named is Colon cancer organoid. Nature of the test: Targeting of F14 CAF-induced therapy resistance in O23 CRC organoid-stroma co-culture. Cell viability is reported with Gefitinib.
For test [5], the system named is Colon cancer organoid. Description: Targeting of F14 CAF-induced therapy resistance in O23 CRC organoid-stroma co-culture. Cell viability is reported with SN-38.

Where “and” joins values, the source holds several entries; their conditions need not be identical. Equal entries are not always repeated.

The term viability denotes a read-out of living cells in per cent, often relative to untreated cells. Take `c1ccc(N2CCN(Cc3nc4ccccc4[nH]3)CC2)nc1`: the viability at 10 µM with Colon cancer organoid [1] (Concentration 10 uM) turned out to be 134%; in the test on Colon cancer organoid [2] (Concentration 10 uM), 57.8%; in the test with Colon cancer organoid [3] (Concentration 10 uM) it was 163%; in the test on Colon cancer organoid [4] (Concentration 10 uM), 66.8%; with Colon cancer organoid [5] (Concentration 10 uM) it was 106%.
The corresponding values for `Cc1sc2c(c1C)C(c1ccc(Cl)cc1)=N[C@@H](CC(=O)OC(C)(C)C)c1nnc(C)n1-2` are 25.8%, 6.17%, 65.2%, 35.6% and 53.4%.
The corresponding values for `COc1cc2c(cc1-c1c(C)noc1C)ncc1[nH]c(=O)n([C@H](C)c3ccccn3)c12` are 30.2%, 9.93%, 143%, 78.1% and 91.5%.
The corresponding values for `Cc1ccc(NC(=O)Nc2cc(C(F)(F)F)ccc2F)cc1Nc1ccc2c(c1)NC(=O)/C2=C\c1ccc[nH]1` are 121%, 40%, 117%, 82.1% and 74.2%.
Regarding `COc1ccccc1S(=O)(=O)Nc1ccc2c(c1)CN(C)C(=O)N2`, the viability at 10 µM with Colon cancer organoid [1] (Concentration 10 uM) came to 101%; with Colon cancer organoid [2] (Concentration 10 uM), 57.5%; in the test on Colon cancer organoid [3] (Concentration 10 uM), 105%; in the test on Colon cancer organoid [4] (Concentration 10 uM) it was 53.9%; with Colon cancer organoid [5] (Concentration 10 uM) it was 73.2%.
The corresponding values for `CCCCNc1ncc(-c2ccc(CN3CCOCC3)cn2)c(N[C@H]2CC[C@H](O)CC2)n1` are 9.12%, 3.91%, 18.1%, 12% and 28.9%.
For `CCOC(=O)Nc1cc(-c2ccc(C)c(NS(C)(=O)=O)c2)nn2c(C)nnc12` the same measures were 59.2%, 14%, 146%, 63.4% and 79.5%.
In the case of `COc1ccccc1C(=O)Nc1cc2c(cc1N1CCCC1)n(C)c(=O)n2C`, the viability at 10 µM in the test with Colon cancer organoid [1] (Concentration 10 uM) is 114%; in the test on Colon cancer organoid [2] (Concentration 10 uM) it was 46.1%; in the test on Colon cancer organoid [3] (Concentration 10 uM), 115%; in the test on Colon cancer organoid [4] (Concentration 10 uM), 79%; in the test on Colon cancer organoid [5] (Concentration 10 uM), 84.2%.
The corresponding values for `COc1ccc(CCc2nc3cc(-c4c(C)noc4C)ccc3n2C[C@H](C)N2CCOCC2)cc1Cl` are 121%, 61.4%, 91.4%, 47.7% and 78.6%.
For `CCCOc1ccn2c(C(C)=O)cc(-c3ccccc3S(C)(=O)=O)c2c1` the same measures were 111%, 59.1%, 113%, 65.2% and 98.8%.
The corresponding values for `COc1cc(C#N)ccc1S(=O)(=O)Nc1ccc2c(c1)cc(C)c(=O)n2C` are 101%, 66.9%, 149%, 86% and 127%.
As to `O=C(/C=C/N1C[C@H]2C[C@@H]1CN2c1ccccn1)c1ccccc1O`, the viability at 10 µM in the test on Colon cancer organoid [1] (Concentration 10 uM) stood at 109%; in the test on Colon cancer organoid [2] (Concentration 10 uM), 70.1%; in the test on Colon cancer organoid [3] (Concentration 10 uM) it was 77.2%; in the test on Colon cancer organoid [4] (Concentration 10 uM) it was 38.6%; with Colon cancer organoid [5] (Concentration 10 uM) it was 45.4%.
Take `CCn1cc(-c2cccc(C(F)(F)F)c2)c2sc(C(=N)NC3CCS(=O)(=O)CC3)cc2c1=O`: the viability at 10 µM with Colon cancer organoid [1] (Concentration 10 uM) is 132%; with Colon cancer organoid [2] (Concentration 10 uM), 66.7%; in the test with Colon cancer organoid [3] (Concentration 10 uM), 144%; in the test with Colon cancer organoid [4] (Concentration 10 uM), 68.8%; in the test on Colon cancer organoid [5] (Concentration 10 uM), 84.2%.
For `CCCOc1ccn2c(C(C)=O)cc(-c3cccc(OC)c3)c2c1` the same measures were 113%, 64.8%, 112%, 74.1% and 92.8%.
For `COc1cc2c(cc1NS(=O)(=O)c1ccc(Br)cc1C)n(C)c(=O)n2C` the same measures were 86.7%, 57.4%, 169%, 69.8% and 117%.
For `CCCS(=O)(=O)c1nc(NC2CC2)cc(-c2ccc3c(ccn3C3CC(C)(C)NC(C)(C)C3)c2)n1`, the “Cell Viability” value in the test with Colon cancer organoid [1] (Concentration 10 uM, 10 µM) is 91.0371% and 136.896%; in the test on Colon cancer organoid [2] (Concentration 10 uM, 10 µM) it was 57.1178%; in the test on Colon cancer organoid [3] (Concentration 10 uM, 10 µM), 73.362% and 105.525%; in the test on Colon cancer organoid [4] (Concentration 10 uM, 10 µM), 66.056%; in the test on Colon cancer organoid [5] (Concentration 10 uM, 10 µM), 68.6533%. Besides, the results for the viability at 10 µM with Colon cancer organoid [2] (Concentration 10 uM), in the test on Colon cancer organoid [4] (Concentration 10 uM) and in the test with Colon cancer organoid [5] (Concentration 10 uM) were 49.6%, 68.4% and 77.1%, respectively.
Take `COc1cc(-c2cn(C)c(=O)c3cnccc23)c(OC)cc1CN(C)C`: the viability at 10 µM in the test on Colon cancer organoid [1] (Concentration 10 uM) is 95.6%; in the test with Colon cancer organoid [2] (Concentration 10 uM) it was 53%; in the test with Colon cancer organoid [3] (Concentration 10 uM), 55.4%; in the test on Colon cancer organoid [4] (Concentration 10 uM), 31.8%; in the test with Colon cancer organoid [5] (Concentration 10 uM), 44.2%.
For `CCC(=O)N1CCOc2c(cc(-c3ccc(OC)c(OC)c3)cc2OCC2CCCN(C)C2)C1` (stereo not drawn) the same measures were 102%, 74.7%, 119%, 60.4% and 96.1%.
For `CC(=O)c1cc(-c2cc(C(=O)NC3CC3)ccc2C)c2ncccn12` the same measures were 83.8%, 65.1%, 108%, 71.5% and 91.2%.
For `CN1C[C@H](Nc2cnn(C)c(=O)c2Br)C[C@H](c2ccccc2)C1` the same measures were 84.6%, 64.7%, 143%, 68.1% and 66.4%.
With `O=C1CCc2cc(Nc3cc(OC4CCOCC4)c([N+](=O)[O-])cc3Cl)ccc2N1`, the viability at 10 µM in the test with Colon cancer organoid [1] (Concentration 10 uM) is 112%; with Colon cancer organoid [2] (Concentration 10 uM), 75.9%; in the test with Colon cancer organoid [3] (Concentration 10 uM) it was 117%; with Colon cancer organoid [4] (Concentration 10 uM), 57.9%; in the test with Colon cancer organoid [5] (Concentration 10 uM), 60.5%.
The corresponding values for `Cc1cc2c(cc1N1C(=O)c3cccc4c(CCCO)ccc(c34)C1=O)n(C)c(=O)n2C` are 47.7%, 43.3%, 150%, 71.7% and 81.8%.
The corresponding values for `Cn1cc(CCn2cnc(-c3cnn(C)c3)c2-c2ccc(C#N)cc2)cn1` are 105%, 71.4%, 141%, 63.6% and 92.5%.
The corresponding values for `Cc1nnc2c3ccccc3c(N[C@@H](C)[C@H](c3ccccc3)N(C)C)nn12` are 69.8%, 53.6%, 119%, 55.2% and 141%.
As for `O=C(O)c1cc(-c2ccc(C3CCNCC3)cc2)c2ccc(-c3ccc(C(F)(F)F)cc3)cc2c1`, the viability at 10 µM with Colon cancer organoid [1] (Concentration 10 uM) came to 77%; with Colon cancer organoid [2] (Concentration 10 uM), 34.4%; with Colon cancer organoid [3] (Concentration 10 uM), 165%; in the test with Colon cancer organoid [4] (Concentration 10 uM), 47.6%; in the test with Colon cancer organoid [5] (Concentration 10 uM), 60.3%.
For `Cc1c(Nc2ccc(S(=O)(=O)N3CCN(C)CC3)cc2F)nc2ccc(Nc3cnn(C4CC4)c3)cn2c1=O` the same measures were 68.6%, 53%, 118%, 115% and 71.2%.
On to `CCCCN(CCCC)C(=O)CN1C[C@H](c2cc(OC)c3c(c2)OCO3)[C@@H](C(=O)O)[C@@H]1CC(C)(C)CCC`, for which the viability at 1 µM in the test on Colon cancer organoid [1] was 125%; with Colon cancer organoid [2] it was 44.1%; with Colon cancer organoid [3], 145%; in the test with Colon cancer organoid [4] it was 50%; in the test on Colon cancer organoid [5], 115%.
Consider `Cc1c(Nc2ccc(S(=O)(=O)N3CCN(C)CC3)cc2F)nc2ccc(-c3cnn(C4CC4)c3)cn2c1=O`, for which the viability at 10 µM came to 51.6% in the test on Colon cancer organoid [1] (Concentration 10 uM); 69.8% in the test on Colon cancer organoid [2] (Concentration 10 uM); 153% in the test with Colon cancer organoid [3] (Concentration 10 uM); 88.9% in the test with Colon cancer organoid [4] (Concentration 10 uM); 85.7% in the test on Colon cancer organoid [5] (Concentration 10 uM).
For the molecule `NC1(c2ccc(-c3nc4c(O)ccnn4c3-c3ccccc3)cc2)CCC1`, the viability at 1 µM in the test with Colon cancer organoid [1] was 98.8%; in the test with Colon cancer organoid [2], 49.5%; in the test on Colon cancer organoid [3] it was 122%; in the test on Colon cancer organoid [4], 69.1%; in the test with Colon cancer organoid [5], 65%.
Take `CCNC(=O)c1cc2c(N3CCOCC3C)ccnc2[nH]1` (stereo not drawn): the viability at 10 µM in the test with Colon cancer organoid [1] (Concentration 10 uM) is 130%; in the test on Colon cancer organoid [2] (Concentration 10 uM), 55.4%; in the test with Colon cancer organoid [3] (Concentration 10 uM), 156%; in the test with Colon cancer organoid [4] (Concentration 10 uM), 56.4%; in the test on Colon cancer organoid [5] (Concentration 10 uM), 97.3%.
For `COc1ccccc1C(=O)Nc1cc2c(cc1N1CCNCC1C)n(C)c(=O)n2C` (stereo not drawn) the same measures were 98.7%, 66%, 84%, 56.5% and 55.3%.
`COc1cccc2c1C(=O)c1c(O)c3c(c(O)c1C2=O)CC(O)(C(=O)CO)CC3OC1CC(N)C(O)C(C)O1` (stereo not drawn): the viability at 10 µM came to 1.66% in the test on Colon cancer organoid [1] (Concentration 10 uM); 0.921% in the test on Colon cancer organoid [2] (Concentration 10 uM); 3.9% with Colon cancer organoid [3] (Concentration 10 uM); 1.62% in the test with Colon cancer organoid [4] (Concentration 10 uM); 5.38% with Colon cancer organoid [5] (Concentration 10 uM).

(Values after ChEMBL document CHEMBL5608113, “Targeting of CAF-induced therapy resistance in CRC organoid-stroma co-cultures” (2024).)
